Like-named read-outs stand apart in the source and are kept apart here.
How the values were obtained:
[1] = test system: CXCR4; test: CXCR4 mRNA activation in HCT116 stably expressing dCas9 and MS2-FKBPx2 (WT-FKBP), qRT-PCR; type: cell-based, human; conditions: FIG. 6, WT FKBP system, 48 hrs
[2] = test system: CXCR4; test: CXCR4 mRNA activation in HCT116 stably expressing dCas9 and MS2-FKBP*x2, qRT-PCR; type: cell-based, human; conditions: for fold change, CXCR4 mRNA (CEM Treated vs Non-Treated): 48 hrs; for fold change, CXCR4 mRNA (CXCR4 gRNA vs NT gRNA): FIG. 3B; for fold change, CXCR4 mRNA (CXCR4 gRNA vs NT gRNA) / fold change, CXCR4 mRNA (washout vs AP1867 competition) / fold change, CXCR4 mRNA (Compare to 0 h): CEM207 25 nM; for fold change, CXCR4 mRNA (washout vs AP1867 competition): FIG. 3D; for fold change, CXCR4 mRNA (Compare to 0 h): FIG. 7A
Procedure, shortened: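 HCT116 cells stably expressing dCas9 and MS2-FKBP*x2 with CXCR4 gRNA were treated with CEMs (screen at 5 nM; 1–50 nM range). CXCR4 mRNA measured by one-step qRT-PCR after 48 h, or at 12–96 h in time course. Reversibility tested by washout after 24 h, optionally with 20 μM AP1867.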

[3] = test system: TRE3G-GFP reporter gene; test: TRE3G-GFP reporter gene activation in HCT116, dCas9 + MS2-FKBP*x2 (F36V) system, flow cytometry; type: cell-based, human; design: fold change, GFP: reference not given here; conditions: for fold change, GFP (Treated vs Non-Treated): FIG. 1E, 48 hours; for fold change, GFP: 48 hrs
[4] = test system: TRE3G-GFP reporter gene; conditions: WT FKBP (MS2-FKBPx2), 48 hrs
Protocol: HCT116 cells were transfected with TRE3G-GFP, dCas9, MS2-FKPB*x2, and TRE3G gRNA or NT gRNA. After 48 hrs of 10 nM SLF*-CEMa treatment, flow cytometry was performed and mean fluorescent value was collected. […] TRE3G-GFP, dCas9, MS2-FKBP*2, TRE3G gRNA or NT gRNA were transfected into HCT116 cells. The media was changed to media with 5 nM CEM207 together with 0 nM, 50 nM, 500 nM or 5000 nM of AP1867, respectively. After 48 hrs chemical exposure, flow cytometry was performed and the mean fluorescent value was measured in each group of cells. […] FIGS. 5D and 5E are dose curves of CEMa molecules activating the GFP reporter gene in HCT116 cells using WT FKBP and dCas9 as DNA binding module. HCT116 cells were transfected with dCas9, MS2-FKBPx2, TRE3G-GFP constructs, along with TRE3G gRNA or NT gRNA. Cells were treated with different concentrations of CEMa molecules for 48 hrs before flow cytometry was conducted. […] Error bars represent the standard deviation.
To better understand the activity of SLF*-CEMa in the WT FKBP-based GFP reporter assay, a similar dose-response assay was conducted in HCT116 cells transfected with dCas9 and MS2-FKBPx2 (FIGS. 1D and 1E).
Flow cytometry. All flow cytometry experiments were performed with Attune Nxt as previously described. […] Significance was determined by Student's t-test.

In the case of `CC[C@H](C(=O)N1CCCC[C@H]1C(=O)O[C@H](CCc1ccc(OC)c(OC)c1)c1cccc(OCC(=O)NCCOCCOCCNC(=O)C[C@@H]2N=C(c3ccc(Cl)cc3)c3c(sc(C)c3C)-n3c(C)nnc32)c1)c1cc(OC)c(OC)c(OC)c1` [CEM207, (R)-1-(3-((14-((S)-4-(4-Chlorophenyl)-2,3,9-trimethyl-6H-thieno[3,2-f][1,2,4]triazolo[4,3-a][1,4]diazepin-6-yl)-2,13-dioxo-6,9-dioxa-3,12-diazatetradecyl)oxy)phenyl)-3-(3,4-dimethoxyphenyl) propyl(S)-1-((S)-2-(3,4,5-trimethoxyphenyl)butanoyl) piperidine-2-carboxylate], the “fold change, CXCR4 mRNA (CXCR4 gRNA vs NT gRNA)” value ([1]; 50 nM) is reported as 4.2 fold, the “fold change, CXCR4 mRNA (CXCR4 gRNA vs NT gRNA)” value ([1]; 200 nM) is reported as 9.1 fold and the “fold change, CXCR4 mRNA (CEM Treated vs Non-Treated)” value ([2]; FIG. 2D, CXCR4 gRNA, 0.5 nM) is reported as 2.5 fold. For the same compound, the “fold change, CXCR4 mRNA (CEM Treated vs Non-Treated)” value ([2]; FIG. 2D, CXCR4 gRNA, 1 nM) was 7.4 fold, the “fold change, CXCR4 mRNA (CEM Treated vs Non-Treated)” value ([2]; FIG. 2D, CXCR4 gRNA, 5 nM) was 28.2 fold and the “fold change, CXCR4 mRNA (CEM Treated vs Non-Treated)” value ([2]; FIG. 2D, CXCR4 gRNA, 25 nM) was 48.2 fold. For the same compound, the “fold change, CXCR4 mRNA (CEM Treated vs Non-Treated)” value ([2]; FIG. 2D, CXCR4 gRNA, 50 nM) was 34.6 fold, the “fold change, CXCR4 mRNA (CEM Treated vs Non-Treated)” value ([2]; FIG. 2D, NT gRNA, 0.5 nM) was 1.17 fold and the “fold change, CXCR4 mRNA (CEM Treated vs Non-Treated)” value ([2]; FIG. 2D, NT gRNA, 1 nM) was 0.77 fold. For the same compound, the “fold change, CXCR4 mRNA (CEM Treated vs Non-Treated)” value ([2]; FIG. 2D, NT gRNA, 5 nM) was 1.47 fold, the “fold change, CXCR4 mRNA (CEM Treated vs Non-Treated)” value ([2]; FIG. 2D, NT gRNA, 25 nM) was 2.21 fold and the “fold change, CXCR4 mRNA (CEM Treated vs Non-Treated)” value ([2]; FIG. 2D, NT gRNA, 50 nM) was 1.88 fold. For the same compound, the “CXCR4 activation compared to dCas9-p300” value ([2]; FIG. 2D, concentrations above 5 nM) was “higher CXCR4 activation”, the “fold change, CXCR4 mRNA (CXCR4 gRNA vs NT gRNA)” value ([2]; 24 h) was 18.6 fold and the “fold change, CXCR4 mRNA (CXCR4 gRNA vs NT gRNA)” value ([2]; 48 h) was 13.1 fold. The “fold change, CXCR4 mRNA (CXCR4 gRNA vs NT gRNA)” value ([2]; 48 h AP1867 (washout with 20 μM AP1867 after 24 hrs)) was 8.3 fold, the “fold change, CXCR4 mRNA (CXCR4 gRNA vs NT gRNA)” value ([2]; 48 h wash (media washout after 24 hrs)) was 10.5 fold and the “fold change, CXCR4 mRNA (CXCR4 gRNA vs NT gRNA)” value ([2]; 72 h) was 6.8 fold. For the same compound, the “fold change, CXCR4 mRNA (CXCR4 gRNA vs NT gRNA)” value ([2]; 72 h AP1867 (washout with 20 μM AP1867 after 24 hrs)) was 4.2 fold, the “fold change, CXCR4 mRNA (CXCR4 gRNA vs NT gRNA)” value ([2]; 72 h wash (media washout after 24 hrs)) was 5.4 fold and the “fold change, CXCR4 mRNA (CXCR4 gRNA vs NT gRNA)” value ([2]; 96 h AP1867 (washout with 20 μM AP1867 after 24 hrs)) was 2.1 fold. For the same compound, the “fold change, CXCR4 mRNA (CXCR4 gRNA vs NT gRNA)” value ([2]; 96 h wash (media washout after 24 hrs)) was 4.3 fold, the “fold change, CXCR4 mRNA (washout vs AP1867 competition)” value ([2]; 48 h) was 1.2 fold and the “fold change, CXCR4 mRNA (washout vs AP1867 competition)” value ([2]; 72 h) was 2.4 fold. The “fold change, CXCR4 mRNA (washout vs AP1867 competition)” value ([2]; 96 h) was 0.57 fold, the “fold change, CXCR4 mRNA (Compare to 0 h)” value ([2]; NT gRNA, 12 h) was 0.1 fold and the “fold change, CXCR4 mRNA (Compare to 0 h)” value ([2]; NT gRNA, 24 h) was 0.6 fold. For the same compound, the “fold change, CXCR4 mRNA (Compare to 0 h)” value ([2]; NT gRNA, 48 h) was 0.7 fold, the “fold change, CXCR4 mRNA (Compare to 0 h)” value ([2]; NT gRNA, 48 h AP1867 (washout with 20 μM AP1867 after 24 hrs)) was 0.7 fold and the “fold change, CXCR4 mRNA (Compare to 0 h)” value ([2]; NT gRNA, 48 h wash (media washout after 24 hrs)) was 0.8 fold. For the same compound, the “fold change, CXCR4 mRNA (Compare to 0 h)” value ([2]; NT gRNA, 72 h) was 0.6 fold, the “fold change, CXCR4 mRNA (Compare to 0 h)” value ([2]; NT gRNA, 72 h AP1867 (washout with 20 μM AP1867 after 24 hrs)) was 0.3 fold and the “fold change, CXCR4 mRNA (Compare to 0 h)” value ([2]; NT gRNA, 72 h wash (media washout after 24 hrs)) was 0.4 fold. The “fold change, CXCR4 mRNA (Compare to 0 h)” value ([2]; NT gRNA, 96 h) was 0.5 fold, the “fold change, CXCR4 mRNA (Compare to 0 h)” value ([2]; NT gRNA, 96 h AP1867 (washout with 20 μM AP1867 after 24 hrs)) was 0.6 fold and the “fold change, CXCR4 mRNA (Compare to 0 h)” value ([2]; NT gRNA, 96 h wash (media washout after 24 hrs)) was 0.6 fold. The “CXCR4 mRNA expression after CEM washout in comparison to cells continuously treated” value ([2]; FIGS. 3C and 3D, CEM203 50 nM or CEM207 25 nM for 24 hours, then media exchange, all time points) was “significantly lowered CXCR4 mRNA expression”, the “time point of highest (peak) CXCR4 mRNA activation” value ([2]; time course 12, 24, 48, 72, 96 hrs, CXCR4 gRNA) was 24 h and the “fold change, GFP (Treated vs Non-Treated)” value ([3]; TRE3G gRNA, 0.25 nM) was 2.0 fold. The “fold change, GFP (Treated vs Non-Treated)” value ([3]; TRE3G gRNA, 0.5 nM) was 9.1 fold, the “fold change, GFP (Treated vs Non-Treated)” value ([3]; TRE3G gRNA, 0.75 nM) was 11.5 fold and the “fold change, GFP (Treated vs Non-Treated)” value ([3]; TRE3G gRNA, 1 nM) was 12.8 fold. The “fold change, GFP (Treated vs Non-Treated)” value ([3]; TRE3G gRNA, 2.5 nM) was 20.6 fold, the “fold change, GFP (Treated vs Non-Treated)” value ([3]; TRE3G gRNA, 5 nM) was 24.0 fold and the “fold change, GFP (Treated vs Non-Treated)” value ([3]; TRE3G gRNA, 7.5 nM) was 22.5 fold. For the same compound, the “fold change, GFP (Treated vs Non-Treated)” value ([3]; TRE3G gRNA, 10 nM) was 21.4 fold, the “fold change, GFP (Treated vs Non-Treated)” value ([3]; TRE3G gRNA, 25 nM) was 21.5 fold and the “fold change, GFP (Treated vs Non-Treated)” value ([3]; TRE3G gRNA, 50 nM) was 22.3 fold. For the same compound, the “fold change, GFP (Treated vs Non-Treated)” value ([3]; TRE3G gRNA, 75 nM) was 22.5 fold, the “fold change, GFP (Treated vs Non-Treated)” value ([3]; TRE3G gRNA, 100 nM) was 21.9 fold and the “fold change, GFP” value ([3]; FIG. 5A, NT gRNA, 10 nM) was 0.3 fold. For the same compound, the “fold change, GFP” value ([3]; FIG. 5A, TRE3G gRNA, 10 nM) was 12.0 fold, the “fold change, GFP” value ([3]; FIG. 5C, NT gRNA, 0.25 nM) was 1.1 fold and the “fold change, GFP” value ([3]; FIG. 5C, NT gRNA, 0.5 nM) was 1.1 fold. The “fold change, GFP” value ([3]; FIG. 5C, NT gRNA, 0.75 nM) was 1.1 fold, the “fold change, GFP” value ([3]; FIG. 5C, NT gRNA, 1 nM) was 1.1 fold and the “fold change, GFP” value ([3]; FIG. 5C, NT gRNA, 2.5 nM) was 1.2 fold. For the same compound, the “fold change, GFP” value ([3]; FIG. 5C, NT gRNA, 5 nM) was 1.5 fold, the “fold change, GFP” value ([3]; FIG. 5C, NT gRNA, 7.5 nM) was 1.5 fold and the “fold change, GFP” value ([3]; FIG. 5C, NT gRNA, 10 nM) was 1.4 fold. The “fold change, GFP” value ([3]; FIG. 5C, NT gRNA, 25 nM) was 1.6 fold, the “fold change, GFP” value ([3]; FIG. 5C, NT gRNA, 50 nM) was 1.6 fold and the “fold change, GFP” value ([3]; FIG. 5C, NT gRNA, 75 nM) was 1.5 fold. The “fold change, GFP” value ([3]; FIG. 5C, NT gRNA, 100 nM) was 1.5 fold, the “fold change, GFP (Treated vs Non-Treated)” value ([4]; FIG. 5D, 10 nM) was 1.9 fold and the “fold change, GFP (Treated vs Non-Treated)” value ([4]; FIG. 5D, 25 nM) was 6.5 fold. The “fold change, GFP (Treated vs Non-Treated)” value ([4]; FIG. 5D, 50 nM) was 17.4 fold, the “fold change, GFP (Treated vs Non-Treated)” value ([4]; FIG. 5D, 100 nM) was 20.8 fold and the “fold change, GFP (Treated vs Non-Treated)” value ([4]; FIG. 5D, 200 nM) was 24.0 fold. The “fold change, GFP (Treated vs Non-Treated)” value ([4]; FIG. 5D, 400 nM) was 27.2 fold, the “fold change, GFP (Treated vs Non-Treated)” value ([4]; FIG. 5E, 10 nM) was 1.1 fold and the “fold change, GFP (Treated vs Non-Treated)” value ([4]; FIG. 5E, 25 nM) was 1.1 fold. The “fold change, GFP (Treated vs Non-Treated)” value ([4]; FIG. 5E, 50 nM) was 1.0 fold, the “fold change, GFP (Treated vs Non-Treated)” value ([4]; FIG. 5E, 100 nM) was 1.1 fold and the “fold change, GFP (Treated vs Non-Treated)” value ([4]; FIG. 5E, 200 nM) was 1.2 fold. For the same compound, the “fold change, GFP (Treated vs Non-Treated)” value ([4]; FIG. 5E, 400 nM) was 1.3 fold.

From patent publication US20250177566A1, “USE OF CHEMICAL EPIGENETIC MODIFIERS TO MODULATE GENE EXPRESSION” (The University of North Carolina at Chapel Hill, priority 2022, published 2025)
